The values that follow come from patent US8420649B2, “Pyrido[3,2-d]pyridazine-2(1H)-one compounds as p38 modulators and methods of use thereof” (Amgen Inc., priority 2008, dated 2013).

For assay [1], the system named is IL-1β, IL-6 and TNF-α production by LPS-activated PBMC. Kind of assay: Lipopolysaccharide-activated PBMC cytokine production assay. The assay is classed as cell-based. Conditions: Homo sapiens, read-out: IC50 in the whole blood PMBC assay. On the procedure:
Lipopolysaccharide-Activated PBMC Cytokine Production Assay
Test compounds were evaluated in vitro for the ability to inhibit the production of IL-1β, IL-6, and TNF-α by PBMC activated with bacterial lipopolysaccharide (LPS). Fresh leukocytes were obtained from a local blood bank, and peripheral blood mononuclear cells (PBMCs) were isolated by density gradient centrifugation on Ficol-Paque Plus (Pharmacia).
Preparation of Test Compound Stock Solutions
All reagents were prepared in RPMI 1640+10% v/v human AB serum+1× Pens/Strep/Glu (assay medium). Test compounds were dissolved in 100% DMSO and serially diluted in 96-well polypropylene round bottom micro titer plates (drug plate). Serial dilutions were then diluted 1:250 into assay medium to a 4× working concentration. Compound serial dilutions were half-log, 10 point titrations with a final starting concentration of 1 μM.
Treatment of Cells with Test Compounds and Activation with Lipopolysaccharide
LPS was prepared to a 4× concentration in assay medium. 100 μl of PBMC (1×10^6 cells/ml) were plated in a 96-well polystyrene flat bottom micro titer tissue culture plate and incubated with 50 μl of 4× compound serial dilution for 1 hour at 37° C., 5% CO2 in a tissue culture incubator. 50 μl 4×LPS or control was added and the plates were incubated at 37° C., 5% CO2 in a tissue culture incubator for 18 hours. The final DMSO concentration was 0.1%. The total volume was 200 μL. The final LPS concentration was 100 ng/mL. After 18 hours culture supernatants were removed and IL-1β, IL-6, and TNF-α presence in the supernatants was quantified using MSD ECL based technology.
20 μL of culture supernatant were added to MSD plates, and incubated for one hour at room temperature. 20 μL of detection antibody diluted in antibody diluent (1 μg/mL), and 110 μL of 2× Read Buffer P was added, and incubated for one hour at RT. Electrochemiluminescence was measured using the SECTOR HTS Imager (MSD, Gaithersburg, Md.).
Compound IC50 values were calculated as follows: The proportion of cytokine production in the presence of compound compared to the cytokine production in the presence of the DMSO vehicle alone (Hi control) was calculated using the formula: Percent Control (POC)=(compound−average Lo)/(average Hi−average Lo)*100.

Another assay addresses human p38α (Homo sapiens, UniProt Q16539). Kind of assay: Purified and activated recombinant human p38α HTRF kinase assay. Type of assay: biochemical. Conditions: recombinant human p38α 1 nM, 50 μM ATP, read-out: p38a IC50. On the procedure: Purified and Activated Recombinant Human p38α Assay Kinase Reaction Buffer: Kinase reaction buffer for p38α HTRF assays consists of 50 mM Tris-pH 7.5, 5 mM MgCl2, 0.1 mg/mL BSA, 100 μM Na3VO4 and 0.5 mM DTT. HTRF Detection Buffer: HTRF detection buffer contains 100 mM HEPES-pH 7.5, 100 mM NaCl, 0.1% BSA, 0.05% Tween-20, and 10 mM EDTA. Serial Dilution of Compounds: Compounds were dissolved in 100% DMSO and serially diluted (3 fold, 10 point) in a polypropylene 96-well microtiter plate (drug plate). The final starting concentration of compounds in the p38α enzymatic assays was 1 μM. […] Kinase Reaction: […] See table below for actual concentrations. In the absence of substrate, the background was measured as LO control. The reaction was allowed to incubate for 1 hour at RT. Assay Reagent Concentrations: […] HTRF Detection: […] After 60 minutes incubation at room temperature, the assay plate was read in a Discovery Plate Reader. The wells were excited with coherent 320 nm light and the ratio of delayed ([…] post excitation) emissions at […] (native europium fluorescence) and 665 nm (europium fluorescence transferred to allophycocyanin-an index of substrate phosphorylation) was determined (Park et al, 1999). Data Analysis: The proportion of substrate phosphorylated in the kinase reaction in the presence of compound compared with that phosphorylated in the presence of DMSO vehicle alone (HI control) was calculated using the formula: % control (POC)=(compound-average LO)/(average HI-average LO)*100. […] The inhibition constant (Ki) of the inhibitor was estimated from the IC50 (compound concentration at the point of inflection C) using the Cheng-Prussof equation: […] All results were expressed as the mean±the standard error of the mean.

Assay [2] has as its system TNF-α production by LPS-activated THP1 cells. Kind of assay: Lipopolysaccharide-activated THP1 cell TNF production assay. The settings on record: Homo sapiens, THP-1, 3 hours, read-out: IC50 in the THP-1 cellular TNF production assay. The assay is classed as cell-based. On the procedure:
Lipopolysaccharide-activated THP1 Cell TNF Production Assay
THP1 cells were resuspended in fresh THP1 media (RPMI 1640, 10% heat-inactivated FBS, 1×PGS, 1×NEAA, plus 30 μM βME) at a concentration of 1.5×10^6 cells per mL. One hundred microliters of cells per well were plated in a polystyrene 96-well tissue culture plate. 1.5 micrograms per mL of bacterial LPS was prepared in THP1 media and transferred to the first 11 columns of a 96-well polypropylene plate. Column 12 contained only THP1 media for the LO control. Compounds were dissolved in 100% DMSO and serially diluted 3 fold in a polypropylene 96-well microtiter plate (drug plate). Columns 6 and 12 were reserved as controls (HI controls and LO controls respectively) and contained only DMSO. […] Fifty microliters of conditioned media was transferred to a 96-well MULTI-ARRAY™ 96-well small spot plate—custom coated with MAB610 containing 100 μL of 2× Read Buffer P supplemented with 0.34 nM AF210NA polyclonal Ab labeled with ruthenium (MSD-Sulfo-TAG™—NHS ester). After an overnight incubation at room temperature with shaking, the reaction was read on the Sector Imager™ 6000. […] The amount of secreted TNF-α in the presence of test compounds compared with that in the presence of DMSO vehicle alone (HI control) was calculated using the formula: % control (POC)=(cpd−average LO)/(average HI−averageLO)*100. […]

Assay [3] has as its system TNF-α induced IL-8 production in human whole blood. The assay can be described thus: Inhibition of TNF-α induced IL-8 in 50% human whole blood. The assay is classed as cell-based. On the procedure:
Inhibition of TNF-α Induced IL-8 in 50% Human Whole Blood Test compounds were evaluated in vitro for the ability to inhibit the production of secreted IL-8 by whole blood activated with TNF-α. Fresh human whole blood was obtained from healthy, non-medicated volunteers in sodium heparin tubes. Compound Dilution—Assay Procedure […] Cytokine Measurement Cytokines are measured on antibody (Ab) sandwich ECL based 96-well detection plates. 20 ul of supernatant are added to plate and plate is sealed and shaken at RT for 1 hour. 130 ul of detection Ab cocktail is added and plates are sealed and shaken for 1 hour in the dark at RT. Plates are read on MSD Sector HTS instrument.

The mark [4] stands for this setting: Homo sapiens, read-out: WB TNF/IL8 IC50, TNF-α (1 nM) induced IL-8, 50% human whole blood, 16-18 hours.

Several values for one entry are separate records, joined by “and”; a condition that tells them apart may be missing. Equal entries are not always repeated. Where two headings read alike, the source gives them in different places.

human p38α, sequence (Q16539 whole entry): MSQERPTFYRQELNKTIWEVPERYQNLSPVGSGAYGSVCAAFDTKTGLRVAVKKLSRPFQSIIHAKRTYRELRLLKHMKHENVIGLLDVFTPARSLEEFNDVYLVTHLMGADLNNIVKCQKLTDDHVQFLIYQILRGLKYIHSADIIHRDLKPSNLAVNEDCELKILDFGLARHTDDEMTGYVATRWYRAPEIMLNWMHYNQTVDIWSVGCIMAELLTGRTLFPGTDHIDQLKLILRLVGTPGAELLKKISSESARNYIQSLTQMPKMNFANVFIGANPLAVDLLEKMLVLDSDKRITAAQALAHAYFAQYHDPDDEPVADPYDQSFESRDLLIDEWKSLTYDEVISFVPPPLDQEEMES

Turning to `Cn1c(=O)c(Oc2ccc(F)cc2F)cc2cnnc(-c3ccccc3Cl)c21` [Example 6, 8-(2-chlorophenyl)-3-(2,4-difluorophenoxy)-1-methylpyrido[2,3-d]pyridazin-2(1H)-one], the IC50 in assay [1] (18 h) was at most 1000 nM; at human p38α it was 0.6 nM.

For the molecule `Cn1c(=O)c(Oc2ccc(F)cc2F)cc2cnnc(-c3ccc(F)cc3F)c21` [Example 12, 3-(2,4-difluorophenoxy)-8-(2,4-difluorophenyl)-1-methylpyrido[2,3-d]pyridazin-2(1H)-one], the IC50 in assay [1] (LPS 100 ng/mL, 18 hours) was at most 1000 nM; on human p38α it was 8.4 nM.

Turning to `Cn1c(=O)c(Nc2ccc(F)cc2F)cc2cnnc(-c3ccc(F)cc3F)c21` [Example 1, 8-(2,4-difluorophenyl)-3-(2,4-difluorophenylamino)-1-methylpyrido[3,2-d]pyridazin-2(1H)-one], the IC50 in assay [1] (18 h) is at most 1000 nM; at human p38α it was 0.8 nM; in assay [2], at most 1000 nM.

As for `Cc1cc(S(C)(=O)=O)ccc1-c1nncc2cc(Oc3ccc(F)cc3F)c(=O)n(C)c12` [Example 9, 3-(2,4-difluorophenoxy)-1-methyl-8-(2-methyl-4-(methylsulfonyl)phenyl)pyrido[2,3-d]pyridazin-2(1H)-one], the IC50 is at most 1000 nM in assay [1] (LPS 100 ng/mL, 18 hours) and 11 nM at human p38α.

As to `Cn1c(=O)c(Nc2ccc(F)cc2F)cc2cnnc(-c3ccc(C(F)(F)F)cc3F)c21` [Example 3, 3-(2,4-difluorophenylamino)-8-(2-fluoro-4-(trifluoromethyl)phenyl)-1-methylpyrido[3,2-d]pyridazin-2(1H)-one], the results for the IC50 (in assay [1] (18 h); on human p38α) were at most 1000 nM and 2.3 nM, respectively.

For the molecule `CCn1c(=O)c(Nc2ccc(F)cc2F)cc2cnnc(-c3ccc(F)cc3F)c21` [Example 5, 8-(2,4-difluorophenyl)-3-((2,4-difluorophenyl)amino)-1-ethylpyrido[2,3-d]pyridazin-2(1H)-one], the values for the IC50 (in assay [1] (18 h); at human p38α) were at most 1000 nM and 0.2 nM, respectively.

On to `Cn1c(=O)c(Nc2ccc(F)cc2F)cc2cnnc(-c3ccc(S(C)(=O)=O)cc3Cl)c21` [Example 10, 8-(2-chloro-4-(methylsulfonyl)phenyl)-3-((2,4-difluorophenyl)amino)-1-methylpyrido[2,3-d]pyridazin-2(1 H)-one], for which the IC50 was at most 1000 nM in assay [1] (LPS 100 ng/mL, 18 hours) and 0.8 nM on human p38α.

For `Cn1c(=O)c(Nc2ccc(F)cc2)cc2cnnc(-c3ccc(F)cc3F)c21` [Example 11, 8-(2,4-difluorophenyl)-3-((4-fluorophenyl)amino)-1-methylpyrido[2,3-d]pyridazin-2(1H)-one], the IC50 in assay [1] (LPS 100 ng/mL, 18 hours) was at most 1000 nM; at human p38α, 2.2 nM.

For `Cn1c(=O)c(Nc2ccc(F)cn2)cc2cnnc(-c3ccc(F)cc3F)c21` [Example 4, 8-(2,4-difluorophenyl)-3-((5-fluoro-2-pyridinyl)amino)-1-methylpyrido[2,3-d]pyridazin-2(1H)-one], the figures for the IC50 (in assay [3] (setting [4]); at human p38α) were above 2500 nM and 327 nM, respectively.

In the case of `Cn1c(=O)c(Oc2ccc(F)cc2)cc2cnnc(-c3ccc(F)cc3F)c21` [Example 2, 8-(2,4-difluorophenyl)-3-(4-fluorophenoxy)-1-methylpyrido[3,2-d]pyridazin-2(1H)-one], the IC50 was at most 1000 nM in assay [1] (18 h); at most 300 nM in assay [3] (setting [4]); 273 nM in assay [3] (read-out: WB TNF/IL8 IC50, TNF-α (1 nM) induced IL-8, 50% human whole blood, 16-18 hours); ≤ 125 nM and 102 nM on human p38α; at most 1000 nM in assay [2].

As for `Cn1c(=O)c(Nc2ncc(F)cc2F)cc2cnnc(-c3ccc(F)cc3F)c21` [Example 7, 8-(2,4-difluorophenyl)-3-((3,5-difluoro-2-pyridinyl)amino)-1-methylpyrido[2,3-d]pyridazin-2(1H)-one], the IC50 in assay [3] (setting [4]) was above 2500 nM; on human p38α, 111 nM.

For the molecule `Cc1cc(S(C)(=O)=O)ccc1-c1nncc2cc(Nc3ccc(F)cc3F)c(=O)n(C)c12` [Example 8, 3-((2,4-difluorophenyl)amino)-1-methyl-8-(2-methyl-4-(methylsulfonyl)phenyl)pyrido[2,3-d]pyridazin-2(1H)-one], the figures for the IC50 (in assay [1] (18 h); at human p38α) were at most 1000 nM and 1.7 nM, respectively.
